Consider ten compounds from patent publication US11912668B2, “GCN2 and perk kinase inhibitors and methods of use thereof” (Deciphera Pharmaceuticals, LLC, priority 2020, dated 2024).

The test system of experiment [1] is phospho-GCN2 (Thr899) in HCT116 colorectal cancer cells. The experiment can be described thus: HCT116 amino acid starved (-AA) phospho-GCN2 assay (Western blot). The experiment is classed as cell-based. The following applies: Homo sapiens, HCT-116, 4 h, read-out: HCT116-AA pGCN2 Western Blot. An outline of the steps: (§1)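 HCT116 cells switched to amino-acid-free EBSS (10% dialyzed FBS, 5.5 mM glucose, vitamins) with serial compound dilutions for 4 h at 37° C. Lysates Western blotted for phospho-GCN2 (Thr899), total GCN2, ATF4 and beta-actin; IC50 values derived from quantified bands.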
A general note: A western blot detects proteins with antibodies after separation by electrophoresis.

The target in experiment [2] is PERK kinase (Homo sapiens (Human), UniProt Q9NZJ5). The experiment is described as follows: Biochemical assay for PERK (coupled pyruvate kinase/lactate dehydrogenase assay). The following applies: 1 mM ATP, rate from 2-3 h time frame. An outline of the steps: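 Coupled pyruvate kinase/lactate dehydrogenase readout of ATP hydrolysis via NADH oxidation (A340), 10 nM PERK, 0.25 mg/mL myelin basic protein, 1 mM ATP, pH 7.5 Tris/MgCl2 buffer, 1% DMSO. Absorbance followed 6 h at 30° C; rate from the 2-3 h window, normalised to no-compound and known-inhibitor controls, IC50 fitted.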
Sequence of PERK kinase (Q9NZJ5 other isoform, or with tags, fused parts or gaps): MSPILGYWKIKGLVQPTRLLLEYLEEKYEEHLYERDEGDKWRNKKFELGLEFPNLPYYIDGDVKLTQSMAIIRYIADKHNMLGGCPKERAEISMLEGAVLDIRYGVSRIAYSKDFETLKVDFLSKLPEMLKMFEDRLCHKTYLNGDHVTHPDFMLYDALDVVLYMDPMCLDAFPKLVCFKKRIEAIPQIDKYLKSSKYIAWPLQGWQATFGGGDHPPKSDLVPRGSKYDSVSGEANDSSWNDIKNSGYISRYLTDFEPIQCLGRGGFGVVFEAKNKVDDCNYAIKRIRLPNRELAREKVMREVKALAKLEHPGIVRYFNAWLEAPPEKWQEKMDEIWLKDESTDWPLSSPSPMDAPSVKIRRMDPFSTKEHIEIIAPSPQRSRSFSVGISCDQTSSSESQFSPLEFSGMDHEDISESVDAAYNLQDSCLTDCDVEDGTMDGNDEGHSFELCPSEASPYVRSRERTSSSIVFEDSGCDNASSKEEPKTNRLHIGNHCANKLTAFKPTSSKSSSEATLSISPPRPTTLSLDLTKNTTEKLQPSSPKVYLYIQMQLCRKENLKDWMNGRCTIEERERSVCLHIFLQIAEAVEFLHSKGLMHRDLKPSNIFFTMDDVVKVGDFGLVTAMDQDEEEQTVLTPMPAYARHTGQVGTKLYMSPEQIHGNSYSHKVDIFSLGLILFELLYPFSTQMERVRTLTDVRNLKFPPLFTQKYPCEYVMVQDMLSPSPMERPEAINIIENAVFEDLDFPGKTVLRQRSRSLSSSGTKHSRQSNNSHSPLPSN

Experiment [3] has as its system ATF4 in HCT116 colorectal cancer cells. The experiment is described as follows: HCT116 amino acid starved (-AA) ATF4 assay (Western blot). The format is cell-based. The following applies: Homo sapiens, HCT-116, 4 h. An outline of the steps:
as §1

The subject of experiment [4] is CCRF-CEM leukemia cells. The experiment can be described thus: CCRF-CEM ASNase cell proliferation assay, phenotypic assay for cellular inhibition of GCN2. The format is cell-based. The following applies: Homo sapiens; ASNase treated CCRF-CEM cells, 1 mU/mL ASNase, 72 h. An outline of the steps:
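Cells were seeded at ten thousand per well in RPMI-1640 with 10% heat-inactivated FBS and treated in triplicate with serially diluted compound plus 1 mU/mL ASNase for 72 h at 37 °C, 5% CO2. Resazurin was then added for 6 h, with fluorescence read at ex 540/em 600 nm to derive IC50 values.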

In experiment [5] the target is GCN2 kinase (Homo sapiens (Human), UniProt Q9P2K8). The experiment is described as follows: Biochemical assay for GCN2 (TR-FRET kinase activity assay). The following applies: 1 mM ATP, 3-hour incubation. The gist of the method:
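TR-FRET assay with 2 nM GCN2, 130 nM GFP-eIF2α substrate, 0.2 mg/mL E. coli tRNA and 1 mM ATP; compounds (0.5% DMSO) reacted 3 h. Stopped with 20 mM EDTA plus 2 nM Tb-anti-peIF2α (pSer52), 60 min RT; 520/490 ratio converted to % inhibition, IC50 from four-parameter fit.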
Background: In TR-FRET formats the signal depends on donor and acceptor labels being close together.

The test system of experiment [6] is ATF4 in CCRF-CEM leukemia cells (PERK). The experiment can be described thus: CCRF-CEM TG ATF4 ELISA, phenotypic assay for cellular inhibition of PERK preactivated by thapsigargin. The experiment is classed as cell-based. The following applies: Homo sapiens; Thapsigargin (1 μM) stimulated CCRF-CEM cells. On the technique in general: In an ELISA, binding on a coated surface is turned into a signal by an enzyme label.

Experiment [7] deals with ATF4 in H929 multiple myeloma cells. The experiment can be described thus: H929 ATF4 ELISA assay (stimulation of cellular ATF4). The format is cell-based. The following applies: 4 h, no thapsigargin. How it is done:
H929 multiple myeloma cells (catalog #CRL-9068) were obtained from the American Type Culture Collection (ATTC, Manassas, VA). Briefly, cells were grown in RPMI-1640 medium supplemented with 20% heat-inactivated fetal bovine serum (catalog #A3840002, ThermoFisher Scientific, Waltham, MA), 1% Penicillin/Streptomycin/L-Glutamine (catalog #10378016, ThermoFisher Scientific, Waltham, MA), and 0.05 mM 2-mercaptoethanol (catalog #21985-023, ThermoFisher Scientific, Waltham, MA) at 37° C., 5% CO2, and 95% humidity. Cells were expanded until reaching one million five hundred thousand cells per mL at which time they were subcultured or harvested for assay use. One million five hundred thousand cells per well in 1 mL complete growth medium were dispensed into 12-well plates and incubated overnight. A serial dilution of test compound was added, and cells were incubated at 37° C., 5% CO2, and 95% for four hours. Cells were lysed then ATF4 levels were measured using an ELISA assay (Proteintech, Rosemont, IL). Absorbance is measured at 450 nm and 544 nM using a Synergy2 or equivalent reader (Biotek, Winooski VT). Data were analyzed using PRISM software (Graphpad, San Diego, CA) to calculate fold stimulation of cellular ATF4 relative to vehicle treated control.

Sequence of GCN2 kinase (Q9P2K8 whole entry): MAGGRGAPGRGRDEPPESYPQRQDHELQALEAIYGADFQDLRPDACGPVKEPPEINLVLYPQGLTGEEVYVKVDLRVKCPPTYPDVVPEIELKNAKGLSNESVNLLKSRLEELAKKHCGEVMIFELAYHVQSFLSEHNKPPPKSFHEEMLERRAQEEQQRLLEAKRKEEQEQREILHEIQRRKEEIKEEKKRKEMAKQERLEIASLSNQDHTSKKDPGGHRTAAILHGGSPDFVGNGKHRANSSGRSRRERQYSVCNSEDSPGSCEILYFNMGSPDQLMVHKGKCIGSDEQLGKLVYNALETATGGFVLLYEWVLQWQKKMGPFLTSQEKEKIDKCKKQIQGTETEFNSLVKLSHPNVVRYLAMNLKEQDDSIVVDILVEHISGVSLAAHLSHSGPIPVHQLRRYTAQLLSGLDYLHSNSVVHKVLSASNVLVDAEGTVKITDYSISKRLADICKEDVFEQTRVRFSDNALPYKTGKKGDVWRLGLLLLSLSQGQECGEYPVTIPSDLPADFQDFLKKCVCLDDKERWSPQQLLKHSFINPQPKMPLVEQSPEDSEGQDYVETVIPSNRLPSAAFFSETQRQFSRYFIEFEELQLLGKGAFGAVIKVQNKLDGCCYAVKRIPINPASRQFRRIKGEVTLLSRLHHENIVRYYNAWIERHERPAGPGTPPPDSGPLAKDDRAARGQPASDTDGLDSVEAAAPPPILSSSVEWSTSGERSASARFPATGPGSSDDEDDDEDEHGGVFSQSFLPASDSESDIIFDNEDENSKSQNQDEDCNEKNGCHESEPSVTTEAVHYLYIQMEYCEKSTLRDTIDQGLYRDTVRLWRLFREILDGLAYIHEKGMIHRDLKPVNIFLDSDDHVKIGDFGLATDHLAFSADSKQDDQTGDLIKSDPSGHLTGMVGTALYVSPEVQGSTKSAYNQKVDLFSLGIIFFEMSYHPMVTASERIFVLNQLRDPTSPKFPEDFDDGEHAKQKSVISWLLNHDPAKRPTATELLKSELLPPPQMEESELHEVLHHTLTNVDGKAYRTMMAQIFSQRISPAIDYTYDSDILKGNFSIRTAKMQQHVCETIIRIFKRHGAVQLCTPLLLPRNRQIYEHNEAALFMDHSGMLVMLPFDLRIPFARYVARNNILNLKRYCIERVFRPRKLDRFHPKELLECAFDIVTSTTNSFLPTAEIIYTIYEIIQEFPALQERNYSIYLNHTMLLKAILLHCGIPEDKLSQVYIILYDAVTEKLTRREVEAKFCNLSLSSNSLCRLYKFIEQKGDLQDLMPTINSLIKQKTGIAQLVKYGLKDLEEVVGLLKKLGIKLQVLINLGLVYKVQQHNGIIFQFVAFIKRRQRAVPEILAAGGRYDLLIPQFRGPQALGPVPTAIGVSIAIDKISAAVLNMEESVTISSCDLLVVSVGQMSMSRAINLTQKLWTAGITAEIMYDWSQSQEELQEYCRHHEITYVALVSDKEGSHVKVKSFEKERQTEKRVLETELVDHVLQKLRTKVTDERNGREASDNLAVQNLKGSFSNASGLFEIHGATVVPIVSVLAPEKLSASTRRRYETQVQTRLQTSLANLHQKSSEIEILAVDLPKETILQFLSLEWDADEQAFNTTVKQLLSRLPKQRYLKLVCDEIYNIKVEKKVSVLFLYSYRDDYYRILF

With `CNc1cc2nc(C)c(-c3cc(F)cc(NS(=O)(=O)c4cc(Cl)cc(CO)c4Cl)c3)cc2cn1` [Example 25], the IC50 is no more than 100 nM in experiment [1]; no more than 100 nM in experiment [2]; no more than 100 nM in experiment [3]; no more than 100 nM in experiment [4]; no more than 100 nM in experiment [5]; 1000 to 10000 nM in experiment [6]. Moreover, in experiment [7], the “H929 NS ATF4 ELISA (fold stimulation of ATF4 relative to vehicle)” value was “++ (“++” refers to an ATF4 stim greater than 5 fold and less than or equal to 10 fold)”.
Regarding `CNc1cc2nc(C)c(-c3cccc(NS(=O)(=O)c4cc(Cl)cnc4OC)c3F)cc2cn1` [Example 31], the IC50 in experiment [1] was no more than 100 nM; in experiment [2], no more than 100 nM; in experiment [3], no more than 100 nM; in experiment [4], no more than 100 nM; in experiment [5], no more than 100 nM; in experiment [6], 1000 to 10000 nM. Also, the “H929 NS ATF4 ELISA (fold stimulation of ATF4 relative to vehicle)” value in experiment [7] was “++ (“++” refers to an ATF4 stim greater than 5 fold and less than or equal to 10 fold)”.
As to `CNc1ncc2cc(-c3cc(NS(=O)(=O)c4cc(Cl)cnc4OC)cc(F)c3F)c(NC)nc2n1` [Example 49], the IC50 in experiment [1] is no more than 100 nM; in experiment [2], 100 to 500 nM; in experiment [3], 100 to 500 nM; in experiment [4], no more than 100 nM; in experiment [5], no more than 100 nM; in experiment [6], 1000 to 10000 nM. Also, the “H929 NS ATF4 ELISA (fold stimulation of ATF4 relative to vehicle)” value in experiment [7] was “+ (“+” refers to an ATF4 stim less than or equal to 5-fold)”.
On to `CNc1nc2nc(N)ncc2cc1-c1cccc(NS(=O)(=O)c2cc(Cl)cnc2OC)c1F` [Example 109, N-(3-(2-amino-7-(methylamino)pyrido[2,3-d]pyrimidin-6-yl)-2-fluorophenyl)-5-chloro-2-methoxypyridine-3-sulfonamide], for which the IC50 is no more than 100 nM in experiment [1]; 100 to 500 nM in experiment [2]; no more than 100 nM in experiment [3]; no more than 100 nM in experiment [4]; no more than 100 nM in experiment [5]; 500 to 1000 nM in experiment [6]. The “H929 NS ATF4 ELISA (fold stimulation of ATF4 relative to vehicle)” value in experiment [7] was “+++ (“+++” refers to an ATF4 stim greater than 10 fold and less than or equal to 20 fold)”.
Turning to `CNc1nc2nc(Nc3cnn(C)c3)ncc2cc1-c1cccc(NS(=O)(=O)c2cc(Cl)cnc2OC)c1F` [Example 110], the IC50 is no more than 100 nM in experiment [1]; no more than 100 nM in experiment [2]; no more than 100 nM in experiment [3]; no more than 100 nM in experiment [4]; no more than 100 nM in experiment [5]; 100 to 500 nM in experiment [6]. For the same compound, the “H929 NS ATF4 ELISA (fold stimulation of ATF4 relative to vehicle)” value in experiment [7] was “++ (“++” refers to an ATF4 stim greater than 5 fold and less than or equal to 10 fold)”.
As for `CNc1cc2nc(N)c(-c3cccc(NS(=O)(=O)c4cc(Cl)cnc4OC)c3F)cc2cn1` [Example 128], the IC50 in experiment [1], in experiment [2], in experiment [3], in experiment [4], in experiment [5] and in experiment [6] was no more than 100 nM throughout. Besides, the “H929 NS ATF4 ELISA (fold stimulation of ATF4 relative to vehicle)” value in experiment [7] was “+++ (“+++” refers to an ATF4 stim greater than 10 fold and less than or equal to 20 fold)”.
For `CNc1ncc2cc(-c3cccc(NS(=O)(=O)c4cccc(CO)c4Cl)c3F)c(NC)nc2n1` [Example 151], the IC50 in experiment [1] was no more than 100 nM; in experiment [2], 100 to 500 nM; in experiment [3], no more than 100 nM; in experiment [4] it was no more than 100 nM; in experiment [5] it was no more than 100 nM; in experiment [6] it was 100 to 500 nM. Further, in experiment [7], the “H929 NS ATF4 ELISA (fold stimulation of ATF4 relative to vehicle)” value was “++ (“++” refers to an ATF4 stim greater than 5 fold and less than or equal to 10 fold)”.
As to `Cc1nc2cc(N)ncc2cc1-c1cccc(NS(=O)(=O)c2cc(Cl)cc(CO)c2Cl)c1F` [Example 174], the IC50 in experiment [4] and in experiment [6] was no more than 100 nM in each case. Moreover, the “H929 NS ATF4 ELISA (fold stimulation of ATF4 relative to vehicle)” value in experiment [7] was “+++ (“+++” refers to an ATF4 stim greater than 10 fold and less than or equal to 20 fold)”.
For the compound `CNc1ncc2cc(-c3cccc(NS(=O)(=O)c4cc(Cl)cc(CO)c4Cl)c3F)c(NC)nc2n1` [Example 175], the IC50 was no more than 100 nM in experiment [2], no more than 100 nM in experiment [4], no more than 100 nM in experiment [5] and 100 to 500 nM in experiment [6]. Besides, the “H929 NS ATF4 ELISA (fold stimulation of ATF4 relative to vehicle)” value in experiment [7] is “+++ (“+++” refers to an ATF4 stim greater than 10 fold and less than or equal to 20 fold)”.
For the compound `CNc1ncc2cc(-c3cccc(NS(=O)(=O)c4cc(Cl)cc(CO)c4OC)c3F)c(NC)nc2n1` [Example 179], the IC50 in experiment [2] was no more than 100 nM; in experiment [4], no more than 100 nM; in experiment [5] it was no more than 100 nM; in experiment [6], 100 to 500 nM. The “H929 NS ATF4 ELISA (fold stimulation of ATF4 relative to vehicle)” value in experiment [7] is “+++ (“+++” refers to an ATF4 stim greater than 10 fold and less than or equal to 20 fold)”.
